Results taken from US6809091B1, “Substances capable of inducing apoptosis” (Takara Bio Inc., priority 1998, dated 2004).
Like-named read-outs stand apart in the source and are kept apart here.

Legend:
Assay type in all cases: cell-based, human
[1] = test system: HL-60 cells; experiment: analysis of fragmentation of DNA
Description: (2) HL-60 cells which were incubated on an RPMI 1640 medium containing 10% of fetal bovine serum processed at 56° C. for 30 minutes were suspended in an RPMI 1640 medium to make 2.5×10^5 cells/5 ml.
To 5 ml the suspension were added 10 μl of 12.5 mM, 25 mM, 50 mM or 100 mM of a 70% ethanolic solution of 4,5-dihydroxy-2-pentenal, 0.05 mM, 0.5 mM, 5 mM or 50 mM of a 70% ethanolic solution of 4-hydroxy-2-cyclopenten-1-one, 5 mM, 10 mM or 20 mM of a 70% ethanolic solution of 4-(9-adeninyl)-2-cyclopenten-1-one prepared in Example 4-(4), 2.5 mM, 5 mM, 15 mM or 25 mM of a 70% ethanolic solution of 4-(9-guaninyl)-2-cyclopenten-1-one prepared in Example 4-(5) 75 mM, 150 mM or 300 mM of a 70% ethanolic solution of 1,5-epoxy-1-hydroxy-3-penten-2-one prepared in Example 5-(2) or 5 mM, 25 mM or 50 mM of a 70% ethanolic solution of 2-(trans-3,4-dihydroxy-1-butenyl)-4-(trans-2-formylvinyl)-1,3-dioxolane prepared in Example 6-(2) followed by incubating at 37° C. in the presence of 5% of carbon dioxide gas for 24 hours and 48 hours and the resulting cells were subjected to a measurement of apoptosis cells using FACScan by a method mentioned in pages 129-130 of “Experimental Protocol Series—Apoptosis Experiment Protocol” which was an extra issue of “Saibo Kogaku (Cell Technology)” (published by Shujunsha in 1994) and also to a measurement of analysis of fragmentation of DNA by a method mentioned in page 61-63 of “Biomanual UP Series—New Experimental Methods for Apoptosis” (published by Yodosha in 1995).

[2] = test system: DSEK cells; experiment: cell growth of DSEK cells (rheumatism model in vitro), Premix WST-1; details: for IC50: Homo sapiens; for inhibition of growth of rheumatism cells / antirheumatic activity: compared with the case where PBS was added
Description: (2) DSEK cells (owned by Department of Second Internal Medicine, Total Medical Center, Saitama Medical College, as a rhematism model in vitro) which were fibroblast cell strains established from synovial membrane from a patient suffering from human chronic rheumatism were incubated in an Iscov-MEM medium (IMDM; manufactured by Gibco BRL) containing 10% of FBS (manufactured by BioWhittaker) at 37° C. in the presence of 5% CO2 until the cells saturated in a incubator, a trypsin-EDTA solution (manufactured by BioWhittaker) was suspended in the above medium to an extent of 3×10^4 cells/ml and each 200 μl of the suspension was placed in each well of a 96-well microtiter plate (manufactured by Falcon). When the cells were almost in a state of 80% saturation after 5-7 days from incubation, the medium was exchanged and 200 μl of the above medium containing 50, 75, 100 or 150 μM of 4-hydroxy-2-cyclopenten-1-one or 4,5-dihydroxy-2-pentenal were added thereto.
A time course of 96 hours was adopted and, every 24 hours, 10 μl of Premix WST-1 (MK 400; manufactured by Takara Shuzo) were added followed by reacting at 37° C. for 3.5 hours and the value (A450-650) obtained by subtracting the absorbance at 650 nm (A650) from that at 450 nm (A450) was defined as a degree of cell growth.
(3) DSEK cells were prepared under the conditions as mentioned in Example 15-(2) and 20 μl of medium containing 25, 50, 75, 100, 200 or 400 μM of 4,5-dihydroxy-2-pentenal, 4-hydroxy-2-cyclopenten-1-one, 4-(9-guaninyl)-2-cyclopenten1-one or 2-(3,4-dihydroxy-1-butenyl)-4-(2-formylvinyl)-1,3-dioxolane were added thereto.
A time course of 72 hours was adopted and, every 24 hours, degree of cell growth was measured with a lapse of time. IC50 of each of the compounds was measured as well.

[3] = test system: heat shock protein of 70 kDa in HL-60; experiment: induction of heat shock protein of 70 kDa, SDS-PAGE and blotting; design: key: “−” means no induction; “±” means a little induction; “+” shows the intensity of induction and the more the “+”, the more the induction; ++: “+” shows the intensity of induction and the more the “+”, the more the induction; +++: “+” shows the intensity of induction and the more the “+”, the more the induction; details: six hours
[4] = 24 hours, Example 15-(3), read-out: IC50
[5] = 48 hours, Example 15-(2), read-out: IC50, 50% cell growth inhibiting concentration
[6] = 72 hours, Example 15-(3), read-out: IC50
[7] = 96 hours, Example 15-(2), read-out: IC50, 50% cell growth inhibiting concentration

Structure (SMILES)	Degree of Cell Growth ([2]; 50 μM, 24 hours)	Degree of Cell Growth ([2]; 50 μM, 48 hours)	Degree of Cell Growth ([2]; 50 μM, 72 hours)	Degree of Cell Growth ([2]; 50 μM, 96 hours)	Degree of Cell Growth ([2]; 75 μM, 24 hours)	Degree of Cell Growth ([2]; 75 μM, 48 hours)	Degree of Cell Growth ([2]; 75 μM, 72 hours)	Degree of Cell Growth ([2]; 75 μM, 96 hours)	Degree of Cell Growth ([2]; 100 μM, 24 hours)	Degree of Cell Growth ([2]; 100 μM, 48 hours)	Degree of Cell Growth ([2]; 100 μM, 72 hours)	Degree of Cell Growth ([2]; 100 μM, 96 hours)	Degree of Cell Growth ([2]; 150 μM, 24 hours)	Degree of Cell Growth ([2]; 150 μM, 48 hours)	Degree of Cell Growth ([2]; 150 μM, 72 hours)	Degree of Cell Growth ([2]; 150 μM, 96 hours)	IC50 [2, 4]	IC50 [2, 5]	IC50 [2, 6]	inhibition of growth of rheumatism cells / antirheumatic activity [2]	further results
O=CC=CC(O)CO (single isomer, unassigned) [4,5-dihydroxy-2-pentenal, trans-4,5-dihydroxy-2-pentenal]	1.12 A450-650	0.83 A450-650	0.96 A450-650	0.98 A450-650	1.11 A450-650	0.77 A450-650	0.67 A450-650	0.59 A450-650	1.02 A450-650	0.63 A450-650	0.54 A450-650	0.59 A450-650	0.96 A450-650	0.61 A450-650	0.41 A450-650	0.55 A450-650	232 µM	165 µM	119 µM	significant inhibition	fragmentation of DNA ([1]; HL-60, 50 μM final concentration): confirmed; fragmentation of DNA ([1]; HL-60, 100 μM final concentration): confirmed; fragmentation of DNA ([1]; HL-60, 200 μM final concentration): confirmed; IC50 [2, 7]: 75 µM; intensity of induction of heat shock protein of 70 kDa ([3]; HL-60, 1.25 μM): −
O=C/C=C/C1COC(/C=C/C(O)CO)O1 (stereo not drawn) [2-(trans-3,4-dihydroxy-1-butenyl)-4-(trans-2-formylvinyl)-1,3-dioxolane]																	267 µM		68 µM	significant inhibition	
Nc1nc2c(ncn2C2C=CC(=O)C2)c(=O)[nH]1 (stereo not shown) [4-(9-guaninyl)-2-cyclopenten-1-one]																	132 µM		67 µM	significant inhibition	
O=C1C=CC(O)C1 (stereo not shown) [4-hydroxy-2-cyclopenten-1-one]	0.57 A450-650	0.71 A450-650	0.73 A450-650	0.54 A450-650	0.51 A450-650	0.68 A450-650	0.68 A450-650	0.55 A450-650	0.50 A450-650	0.64 A450-650	0.67 A450-650	0.51 A450-650	0.46 A450-650	0.55 A450-650	0.63 A450-650	0.50 A450-650	207 µM	60 µM	60 µM	significant inhibition	fragmentation of DNA ([1]; HL-60, 10 μM final concentration): confirmed; IC50 [2, 7]: 35 µM; intensity of induction of heat shock protein of 70 kDa ([3]; HL-60, 2.5 μM): −; intensity of induction of heat shock protein of 70 kDa ([3]; HL-60, 10 μM): +
